Measurements: US20070213394A1 (priority 2004, published 2007)
Read-outs that look alike come from different tables or passages of the source.

Legend:
[1] = target: T1, human kappa opioid receptor (Homo sapiens, UniProt P41145); assay: biochemical; assay type: binding
T1 construct: expressed in transfected cells; host or cells: Chinese hamster ovary cells (CHO-hKOR), membranes

[2] = target: T1, human kappa opioid receptor; assay: biochemical; details: for Emax: 1 h, read-out: Efficacy
rats [3] = assay: Forced swim test (FST); assay type: in vivo, rat; details: FIG. 3A
rats [4] = assay: Locomotor activity test; assay type: in vivo, rat; details: FIG. 3B
rats [5] = assay: Intracranial self-stimulation (ICSS), lateral hypothalamic brain stimulation; assay type: in vivo, rat; details: 1.0 mg/kg, IP, 1-hour test sessions, FIG. 4

T1 sequence (P41145 whole entry): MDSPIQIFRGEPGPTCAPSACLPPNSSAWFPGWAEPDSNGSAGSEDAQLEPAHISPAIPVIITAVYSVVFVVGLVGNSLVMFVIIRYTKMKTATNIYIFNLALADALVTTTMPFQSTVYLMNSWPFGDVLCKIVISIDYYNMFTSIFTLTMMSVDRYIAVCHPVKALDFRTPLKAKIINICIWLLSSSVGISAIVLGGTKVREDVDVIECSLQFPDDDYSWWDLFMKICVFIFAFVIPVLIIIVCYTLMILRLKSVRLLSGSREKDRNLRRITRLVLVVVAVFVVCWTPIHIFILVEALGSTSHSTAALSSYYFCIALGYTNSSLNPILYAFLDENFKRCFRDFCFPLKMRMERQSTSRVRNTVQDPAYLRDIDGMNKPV

## COC(=O)C1CC(N(C)C)C(=O)C2C1(C)CCC1C(=O)OC(c3ccoc3)CC12C (stereo not shown) [Compound 211a, 2-(N,N-dimethyl)-salvinorin]
[1]
  Ki: 168 ± 10 nM
[2]
  EC50: 240 ± 23 nM
  Emax: 110%

## COC(=O)[C@@H]1C[C@H](OC)C(=O)C2[C@@]1(C)CC[C@H]1C(=O)O[C@H](c3ccoc3)C[C@]21C (stereo partly shown) [Compound 4, 2-methoxy-salvinorin B]
[1]
  Ki: 220 ± 12 nM
[2]
  EC50: 389 ± 76 nM
  Emax: 98%

## 2-(N,N-dimethylamino)-salvinorin [Compound 19]
[1]; read-out: Ki
  Ki: 90.9 ± 2.5 nM
[2]; read-out: EC50
  EC50: 343 ± 12 nM

## CCN[C@@H]1C[C@@H](C(=O)OC)[C@]2(C)CC[C@H]3C(=O)O[C@H](c4ccoc4)C[C@]3(C)C2C1=O (stereo partly shown) [Compound 18, 2-(N-ethylamino)-salvinorin]
[1]
  Ki: 28.9 ± 1 nM
[2]
  EC50: 68.9 ± 5.3 nM

## COC(=O)C1CC(NC(C)C)C(=O)C2C1(C)CCC1C(=O)OC(c3ccoc3)CC12C (stereo not shown) [Compound 210a, 2-(N-isopropyl)-salvinorin]
[1]
  Ki: 17.6 ± 3.1 nM
[2]
  EC50: 18.9 ± 0.6 nM
  Emax: 99%

## CNC1CC(C(=O)OC)C2(C)CCC3C(=O)OC(c4ccoc4)CC3(C)C2C1=O (stereo not shown) [Compound 208a, 2-(N-methyl)-salvinorin]
[1]
  Ki: 328 ± 40 nM
[2]
  EC50: 825 ± 93 nM
  Emax: 82%

## COC(=O)[C@@H]1C[C@H](OC(C)=O)C(=O)C2[C@@]1(C)CC[C@H]1C(=O)OC(C3CCOC3)C[C@]21C (stereo partly shown) [Compound 62]
[1]
  Ki: 19.3 nM
[2]
  EC50: 68.3 nM
  Emax: 117 ± 4.7%

## COC(=O)C1=CC(=O)C=C2[C@@]1(C)CC[C@H]1C(=O)O[C@H](c3ccoc3)C[C@]21C [Compound 70]
[1]
  Ki: > 616 nM
[2]
  EC50: > 5150 nM

## COC(=O)[C@@H]1C[C@@H](N)C(=O)C2[C@@]1(C)CC[C@H]1C(=O)O[C@H](c3ccoc3)C[C@]21C (stereo partly drawn) [Compound 207b, 2-epi-aminosalvinorin]
[1]
  Ki: 223 ± 123 nM
[2]
  EC50: 1370 ± 155 nM
  Emax: 84%

## CCCC(=O)O[C@H]1C[C@@H](C(=O)OC)[C@]2(C)CC[C@H]3C(=O)O[C@H](c4ccoc4)C[C@]3(C)C2C1=O (stereo partly shown) [Compound 3, 2-butyryl-salvinorin B]
[1]
  Ki: 4.9 ± 0.6 nM
[2]
  EC50: 9.9 ± 0.6 nM
  Emax: 97%

## CCC(=O)O[C@H]1C[C@@H](C(=O)OC)[C@]2(C)CC[C@H]3C(=O)O[C@H](c4ccoc4)C[C@]3(C)C2C1=O (stereo partly shown) [Compound 2, 2-propionyl-salvinorin B]
[1]
  Ki: 7.2 ± 0.5 nM
[2]
  EC50: 20.4 ± 3.4 nM
  Emax: 94%

## COC(=O)[C@@H]1C[C@H](OC(=O)[C@H](C)N(C)C)C(=O)C2[C@@]1(C)CC[C@H]1C(=O)O[C@H](c3ccoc3)C[C@]21C (stereo partly shown) [Compound 92]
[1]
  Ki: 197 ± 19 nM
[2]
  EC50: 539 ± 11 nM
  Emax: 90%

## COC(=O)[C@@H]1C[C@@H](NC(C)C)C(=O)C2[C@@]1(C)CC[C@H]1C(=O)O[C@H](c3ccoc3)C[C@]21C (stereo partly drawn) [Compound 75, 2-epi-(N-isopropyl)-salvinorin]
[1]
  Ki: 2.3 ± 0.6 nM
[2]
  EC50: 7.2 ± 0.3 nM

## COC(=O)[C@@H]1C[C@H](OC(=O)CNC(=O)OCC2c3ccccc3-c3ccccc32)C(=O)C2[C@@]1(C)CC[C@H]1C(=O)O[C@H](c3ccoc3)C[C@]21C (stereo partly shown) [Compound 21]
[1]
  Ki: > 277 nM
[2]
  EC50: > 4120 nM

## COC(=O)[C@@H]1C[C@H](OC(=O)[C@H](C)NC(C)=O)C(=O)C2[C@@]1(C)CC[C@H]1C(=O)O[C@H](c3ccoc3)C[C@]21C (stereo partly shown) [Compound 91]
[1]
  Ki: 176 ± 5.5 nM
[2]
  EC50: 219 ± 25 nM
  Emax: 93%

## C=CCO[C@H]1C[C@@H](C(=O)OC)[C@]2(C)CC[C@H]3C(=O)O[C@H](c4ccoc4)C[C@]3(C)C2C1=O (stereo partly shown) [Compound 14, 2-allyloxy-salvinorin B]
[1]
  Ki: 60.1 ± 5.1 nM
[2]
  EC50: 145 ± 33 nM
  Emax: 106%

## CNC(=O)O[C@H]1C[C@@H](C(=O)OC)[C@]2(C)CC[C@H]3C(=O)O[C@H](c4ccoc4)C[C@]3(C)C2C1=O (stereo partly shown) [Compound 10, 2-(O—(N-methyl)formamide)-salvinorin B]
[1]
  Ki: 83 ± 9 nM
[2]
  EC50: 201 ± 10 nM
  Emax: 81%

## COC(=O)[C@@H]1C[C@H](NC(=O)NC(=O)C(Cl)(Cl)Cl)C(=O)C2[C@@]1(C)CC[C@H]1C(=O)O[C@H](c3ccoc3)C[C@]21C (stereo partly shown) [Compound 79]
[1]
  Ki: 227 ± 32 nM
[2]
  EC50: 471 ± 110 nM
  Emax: 103%

## CCOC(=O)O[C@H]1C[C@@H](C(=O)OC)[C@]2(C)CC[C@H]3C(=O)O[C@H](c4ccoc4)C[C@]3(C)C2C1=O (stereo partly shown) [Compound 30]
[1]
  Ki: > 78.9 nM
[2]
  EC50: > 1120 nM

## CC(=O)O[C@H]1C[C@@H](C(=O)O)[C@]2(C)CC[C@@H]3C(=O)O[C@H](c4ccoc4)C[C@]3(C)C2C1=O (stereo partly drawn) [Compound 31, epi-demethyl Salvinorin]
[1]
  Ki: 17.3 nM
[2]
  EC50: 84 nM
  Emax: 93 ± 5%

## CCNC(=O)O[C@H]1C[C@@H](C(=O)OC)[C@]2(C)CC[C@H]3C(=O)O[C@H](c4ccoc4)C[C@]3(C)C2C1=O (stereo partly shown) [Compound 20, 2-(O—(N-ethyl)formamide)-salvinorin B]
[1]
  Ki: 462 ± 20 nM
[2]
  EC50: > 1000 nM

## COC(=O)[C@@H]1C[C@H](OC(=O)Nc2ccccc2)C(=O)C2[C@@]1(C)CC[C@H]1C(=O)O[C@H](c3ccoc3)C[C@]21C (stereo partly shown) [Compound 86]
[1]
  Ki: 282 ± 13 nM
[2]
  EC50: 197 ± 39 nM
  Emax: 93%

## COC(=O)C1CC(NC(C)=O)C(=O)C2C1(C)CCC1C(=O)OC(c3ccoc3)CC12C (stereo not shown) [Compound 212a, 2-(acetamide)-salvinorin]
[1]
  Ki: 149 ± 1 nM
[2]
  EC50: 188 ± 2 nM

## COC(=O)O[C@H]1C[C@@H](C(=O)OC)[C@]2(C)CC[C@H]3C(=O)O[C@H](c4ccoc4)C[C@]3(C)C2C1=O (stereo partly shown) [Compound 29]
[1]
  Ki: > 91 nM
[2]
  EC50: > 1720 nM

## CCCCO[C@H]1C[C@@H](C(=O)OC)[C@]2(C)CC[C@H]3C(=O)O[C@H](c4ccoc4)C[C@]3(C)C2C1=O (stereo partly shown) [Compound 13, 2-n-butoxy-salvinorin B]
[1]
  Ki: 35.8 ± 5.1 nM
[2]
  EC50: 104 ± 17 nM

## COC(=O)[C@@H]1C[C@H](OC(C)=O)C(=O)C2[C@@]1(C)CC[C@H]1C(=O)O[C@H](c3ccoc3)C[C@]21C (stereo partly shown) [salvinorin A]
Rats [3]
  effect in the forced swim test: depressive-like effects
Rats [4]
  effect on locomotor activity: without affecting locomotor activity
Rats [5]
  ICSS thresholds: significantly elevated ICSS thresholds

## CC(=O)OC1CC(C(=O)NC(C)C(=O)OCc2ccccc2)C2(C)CCC3C(=O)OC(c4ccoc4)CC3(C)C2C1=O (stereo not shown) [Compound 98]
[1]
  Ki: 14.2 ± 0.8 nM
[2]
  EC50: 46.7 ± 7.3 nM
  Emax: 95%

## COC(=O)C1CC(N(C)C(C)=O)C(=O)C2C1(C)CCC1C(=O)OC(c3ccoc3)CC12C (stereo not shown) [Compound 214a, 2-(N-methylacetamide)-salvinorin]
[1]
  Ki: 3.2 ± 0.1 nM
[2]
  EC50: 2.4 ± 0.7 nM
  Emax: 103%

## CC(=O)OC1CC(C(=O)N2CCCC2C(=O)OCc2ccccc2)C2(C)CCC3C(=O)OC(c4ccoc4)CC3(C)C2C1=O (stereo not shown) [Compound 103]
[1]
  Ki: 210 ± 32 nM
[2]
  EC50: 348 ± 26 nM
  Emax: 100%

## CC(=O)O[C@H]1C[C@@H](C(=O)O)[C@]2(C)CC[C@H]3C(=O)O[C@H](c4ccoc4)C[C@]3(C)C2C1=O (stereo partly shown) [Compound 32, demethyl Salvinorin]
[1]
  Ki: > 115 nM
[2]
  EC50: > 1230 nM

## CCOC(=O)C1CC(OC(C)=O)C(=O)C2C1(C)CCC1C(=O)OC(c3ccoc3)CC12C (stereo not shown) [Compound 34]
[1]
  Ki: 365 ± 26 nM
[2]
  EC50: 94.4 ± 4.1 nM
  Emax: 110 ± 6.4%

## COC(=O)C1CC(NC(C)=O)C(=O)C2C1(C)CCC1C(=O)OC(c3ccoc3)CC12C (stereo not drawn) [Compound 212b, 2-epi-(acetamide)-salvinorin]
[1]; read-out: Ki
  Ki: 332 ± 41 nM
[2]; read-out: EC50
  EC50: 339 ± 33 nM

## CCC(=O)N(C)[C@@H]1C[C@@H](C(=O)OC)[C@]2(C)CC[C@H]3C(=O)O[C@H](c4ccoc4)C[C@]3(C)C2C1=O (stereo partly drawn) [Compound 81, 2-epi-(N-methylpropionamide)-salvinorin]
[1]
  Ki: 6.9 ± 1.1 nM
[2]
  EC50: 12.6 ± 0.9 nM

## COC(=O)[C@@H]1C[C@H](OCc2ccccc2)C(=O)C2[C@@]1(C)CC[C@H]1C(=O)O[C@H](c3ccoc3)C[C@]21C (stereo partly shown) [Compound 17, 2-benzyloxy-salvinorin B]
[1]
  Ki: 75.7 ± 5.9 nM
[2]
  EC50: 161 ± 14 nM

## CCCO[C@H]1C[C@@H](C(=O)OC)[C@]2(C)CC[C@H]3C(=O)O[C@H](c4ccoc4)C[C@]3(C)C2C1=O (stereo partly shown) [Compound 16, 2-propoxy-salvinorin B]
[1]
  Ki: 28.7 ± 3 nM
[2]
  EC50: 67.4 ± 9.9 nM
  Emax: 100%

## C#CCCCCOC(=O)C1CC(OC(C)=O)C(=O)C2C1(C)CCC1C(=O)OC(c3ccoc3)CC12C (stereo not shown) [Compound 51]
[1]
  Ki: 679 ± 112 nM
[2]
  EC50: 224 ± 4 nM
  Emax: 104 ± 16.5%
